In PubChem BioAssay (NCI):
Where “and” joins values, the source holds several entries; their conditions need not be identical. Identical values can stand only once.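 Values below derive from 48-hour exposures of cells grown in 96-well plates, with endpoints linearly interpolated between the two concentrations bracketing the appropriate inhibition level. GI50: concentration for 50% inhibition of growth. TGI is the concentration that stops growth completely.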

Columns and labels:
Test in all cases: inhibition of tumour cell growth, NCI panel, 48 h
OVCAR-3 ovarian = system: OVCAR-3 ovarian
RXF 393 renal = system: RXF 393 renal
SK-OV-3 ovarian = system: SK-OV-3 ovarian
UACC-62 melanoma = system: UACC-62 melanoma
NCI-H460 lung = system: NCI-H460 lung
RPMI-8226 leukemia = system: RPMI-8226 leukemia
786-0 renal = system: 786-0 renal
NCI-H23 lung = system: NCI-H23 lung
UO-31 renal = system: UO-31 renal
SF-295 CNS = system: SF-295 CNS
K-562 leukemia = system: K-562 leukemia
CAKI-1 renal = system: CAKI-1 renal
LOX IMVI melanoma = system: LOX IMVI melanoma
SNB-19 CNS = system: SNB-19 CNS
MDA-MB-435 = system: MDA-MB-435
SW-620 colon = system: SW-620 colon
HOP-62 NSCLC = system: HOP-62 NSCLC
SR leukemia = system: SR leukemia
OVCAR-8 ovarian = system: OVCAR-8 ovarian
HS 578T breast = system: HS 578T breast
HCT-116 colon = system: HCT-116 colon
HL-60(TB) leukemia = system: HL-60(TB) leukemia
MDA-MB-231 breast = system: MDA-MB-231 breast
NCI-H226 lung = system: NCI-H226 lung
OVCAR-5 ovarian = system: OVCAR-5 ovarian
SF-268 CNS = system: SF-268 CNS
T-47D breast = system: T-47D breast
TK-10 renal = system: TK-10 renal
U251 CNS = system: U251 CNS
SK-MEL-2 melanoma = system: SK-MEL-2 melanoma
PC-3 prostate = system: PC-3 prostate
HCC-2998 colon = system: HCC-2998 colon
HCT-15 colon = system: HCT-15 colon
A549 NSCLC = system: A549 NSCLC
KM12 colon = system: KM12 colon
MCF7 breast = system: MCF7 breast
NCI-H522 lung = system: NCI-H522 lung
OVCAR-4 ovarian = system: OVCAR-4 ovarian
HT29 colon = system: HT29 colon
COLO 205 colon = system: COLO 205 colon
CCRF-CEM leukemia = system: CCRF-CEM leukemia
DU-145 prostate = system: DU-145 prostate
MALME-3M melanoma = system: MALME-3M melanoma
HOP-92 NSCLC = system: HOP-92 NSCLC
SN12C renal = system: SN12C renal
SF-539 CNS = system: SF-539 CNS
BT-549 breast = system: BT-549 breast
MOLT-4 leukemia = system: MOLT-4 leukemia
SK-MEL-28 melanoma = system: SK-MEL-28 melanoma
IGROV1 ovarian = system: IGROV1 ovarian
NCI/ADR-RES ovarian = system: NCI/ADR-RES ovarian
EKVX NSCLC = system: EKVX NSCLC
UACC-257 melanoma = system: UACC-257 melanoma
M14 melanoma = system: M14 melanoma
A498 renal = system: A498 renal
SK-MEL-5 melanoma = system: SK-MEL-5 melanoma
SNB-75 CNS = system: SNB-75 CNS
ACHN renal = system: ACHN renal

O=c1[nH][nH]c(=O)c2c(O)c(-c3ccccc3)ncc12
GI50 (OVCAR-3 ovarian): 27.6 µM and 84 µM | TGI (OVCAR-3 ovarian): 84.2 µM and 468 µM | GI50 (RXF 393 renal): 27.8 µM and 44.9 µM | TGI (RXF 393 renal): 62 µM and 187 µM | GI50 (SK-OV-3 ovarian): 27.8 µM and 120 µM | TGI (SK-OV-3 ovarian): 93.3 µM and 488 µM | GI50 (UACC-62 melanoma): 34.2 µM and 73.5 µM | TGI (UACC-62 melanoma): 420 µM | GI50 (NCI-H460 lung): 55.6 µM and 146 µM | TGI (NCI-H460 lung): 634 µM | GI50 (RPMI-8226 leukemia): 79.2 µM and 283 µM | TGI (RPMI-8226 leukemia): 706 µM | GI50 (786-0 renal): 19.4 µM and 26.7 µM | TGI (786-0 renal): 42.1 µM and 90.4 µM | GI50 (NCI-H23 lung): 75.9 µM and 194 µM | TGI (NCI-H23 lung): 827 µM | GI50 (UO-31 renal): 37.4 µM and 129 µM | TGI (UO-31 renal): 622 µM | GI50 (SF-295 CNS): 40.7 µM and 69.3 µM | TGI (SF-295 CNS): 800 µM | GI50 (K-562 leukemia): 219 µM | TGI (K-562 leukemia): > 1000 µM | GI50 (CAKI-1 renal): 83.8 µM and 145 µM | TGI (CAKI-1 renal): 748 µM | GI50 (LOX IMVI melanoma): 38.9 µM and 123 µM | TGI (LOX IMVI melanoma): 442 µM | GI50 (SNB-19 CNS): 47.6 µM and 71.6 µM | TGI (SNB-19 CNS): 841 µM | GI50 (MDA-MB-435): 44.1 µM and 205 µM | TGI (MDA-MB-435): > 1000 µM | GI50 (SW-620 colon): 45.8 µM and 188 µM | TGI (SW-620 colon): 891 µM | GI50 (HOP-62 NSCLC): 27.9 µM and 86.9 µM | TGI (HOP-62 NSCLC): 87.3 µM and 471 µM | GI50 (SR leukemia): 39.6 µM and 118 µM | TGI (SR leukemia): 554 µM | GI50 (OVCAR-8 ovarian): 37 µM and 64.6 µM | TGI (OVCAR-8 ovarian): 649 µM | GI50 (HS 578T breast): 40.3 µM and 40.2 µM | TGI (HS 578T breast): 672 µM | GI50 (HCT-116 colon): 55 µM and 132 µM | TGI (HCT-116 colon): 405 µM | GI50 (HL-60(TB) leukemia): 74.4 µM and 174 µM | TGI (HL-60(TB) leukemia): 553 µM | GI50 (MDA-MB-231 breast): 37.7 µM and 113 µM | TGI (MDA-MB-231 breast): 385 µM | GI50 (NCI-H226 lung): 25.2 µM and 135 µM | TGI (NCI-H226 lung): 52.6 µM and 463 µM | GI50 (OVCAR-5 ovarian): 60 µM and 160 µM | TGI (OVCAR-5 ovarian): 832 µM | GI50 (SF-268 CNS): 35 µM and 71.3 µM | TGI (SF-268 CNS): > 1000 µM | GI50 (T-47D breast): 27.6 µM and 60.5 µM | TGI (T-47D breast): 95.5 µM and 843 µM | GI50 (TK-10 renal): 57 µM and 153 µM | TGI (TK-10 renal): 462 µM | GI50 (U251 CNS): 31.4 µM and 48.8 µM | TGI (U251 CNS): 79.8 µM and 405 µM | GI50 (SK-MEL-2 melanoma): 26 µM and 79.1 µM | TGI (SK-MEL-2 melanoma): 67.3 µM and 373 µM | GI50 (PC-3 prostate): 44.5 µM and 143 µM | TGI (PC-3 prostate): 662 µM | GI50 (HCC-2998 colon): 34.9 µM and 103 µM | TGI (HCC-2998 colon): 642 µM | GI50 (HCT-15 colon): 57.5 µM and 185 µM | TGI (HCT-15 colon): > 1000 µM | GI50 (A549 NSCLC): 57.7 µM and 325 µM | TGI (A549 NSCLC): 807 µM | GI50 (KM12 colon): 34.2 µM and 53.1 µM | TGI (KM12 colon): 482 µM | GI50 (MCF7 breast): 47 µM and 199 µM | TGI (MCF7 breast): > 1000 µM | GI50 (NCI-H522 lung): 42.3 µM and 70.2 µM | TGI (NCI-H522 lung): 376 µM | GI50 (OVCAR-4 ovarian): 46 µM and 110 µM | TGI (OVCAR-4 ovarian): 630 µM | GI50 (HT29 colon): 38.4 µM and 177 µM | TGI (HT29 colon): 674 µM | GI50 (COLO 205 colon): 41.6 µM and 130 µM | TGI (COLO 205 colon): 399 µM | GI50 (CCRF-CEM leukemia): 35.2 µM and 55.1 µM | TGI (CCRF-CEM leukemia): 894 µM | GI50 (DU-145 prostate): 58.5 µM and 144 µM | TGI (DU-145 prostate): > 1000 µM | GI50 (MALME-3M melanoma): 30.1 µM and 54.4 µM | TGI (MALME-3M melanoma): 278 µM | GI50 (HOP-92 NSCLC): 30.4 µM and 50.1 µM | TGI (HOP-92 NSCLC): 91.2 µM and 277 µM | GI50 (SN12C renal): 62.6 µM and 160 µM | TGI (SN12C renal): 623 µM | GI50 (SF-539 CNS): 32.6 µM | TGI (SF-539 CNS): 95.1 µM | GI50 (BT-549 breast): 32.9 µM and 47.4 µM | TGI (BT-549 breast): 357 µM | GI50 (MOLT-4 leukemia): 35 µM and 173 µM | TGI (MOLT-4 leukemia): > 1000 µM | GI50 (SK-MEL-28 melanoma): 31.9 µM and 40.4 µM | TGI (SK-MEL-28 melanoma): > 1000 µM | GI50 (IGROV1 ovarian): 247 µM | TGI (IGROV1 ovarian): 835 µM | GI50 (NCI/ADR-RES ovarian): 36.7 µM and 73.2 µM | TGI (NCI/ADR-RES ovarian): 586 µM | GI50 (EKVX NSCLC): 228 µM | TGI (EKVX NSCLC): 939 µM | GI50 (UACC-257 melanoma): 46.2 µM and 272 µM | TGI (UACC-257 melanoma): 871 µM | GI50 (M14 melanoma): 32.8 µM and 63.3 µM | TGI (M14 melanoma): 385 µM | GI50 (A498 renal): 24.9 µM and 32.2 µM | TGI (A498 renal): 61.7 µM and 119 µM | GI50 (SK-MEL-5 melanoma): 45.8 µM and 175 µM | TGI (SK-MEL-5 melanoma): 357 µM | GI50 (SNB-75 CNS): 35.4 µM and 37.6 µM | TGI (SNB-75 CNS): 353 µM | GI50 (ACHN renal): 182 µM | TGI (ACHN renal): 845 µM
